Measured values published in patent publication US7303763B2, “Compositions for conjugated estrogens and associated methods” (Watson Laboratories, Inc., priority 2001, dated 2007).

Assay: Accelerated stability study of coated 0.625 mg conjugated estrogens tablets (active compounds and degradation products per USP, LOD)
Format: physicochemical
Conditions: for Change: initial % found versus 40c
From the text: (§1) Stability was monitored under different storage conditions.
as §1

[1] = acrylic-coated 0.625 mg tablets, Lot EXPWS 1251, 10% Eudragit/RS:RL (2:1), Initial
[2] = acrylic-coated tablets, Lot EXPWS 1251, 40c, 75% RH/1m
[3] = acrylic-coated tablets, Lot EXPWS 1251, 40c, 75% RH/2m
[4] = acrylic-coated tablets, Lot EXPWS 1251, 40c, 75% RH/3m
[5] = acrylic-coated tablets, Lot EXPWS 1251, 50c, 75% RH/2 wks
[6] = acrylic-coated tablets, Lot EXPWS 1251, 75% RH/3m
[7] = sugar-coated 0.625 mg tablets, Lot EXPWS 1246, Initial
[8] = sugar-coated tablets, Lot EXPWS 1246, 40c, 75% RH/1 mnth
[9] = sugar-coated tablets, Lot EXPWS 1246, 40c, 75% RH/2 mnth
[10] = sugar-coated tablets, Lot EXPWS 1246, 50c, 75% RH/2 wks

Row | Compound | % Found [1] [%] | % Found [2] [%] | % Initial [2] [%] | % Found [3] [%] | % Initial [3] [%] | % Found [4] [%] | % Initial [4] [%] | % Found [5] [%] | % Initial [5] [%] | Change [6] | % Found [7] [%] | % Found [8] [%] | % Initial [8] [%] | % Found [9] [%] | % Initial [9] [%] | % Found [10] [%] | % Initial [10] [%]
1 | C[C@]12CCc3c(ccc4cc(O)ccc34)[C@@H]1CC[C@H]2O [17a-dihydroequilenin] | 1.65 | 2.03 | 123.0 | 2.34 | 141.8 | 2.82 | 170.9 | 1.79 | 108.5 | −1.17 | 2.05 | 2.16 | 105.4 | 2.2 | 107.3 | 2.19 | 106.8
2 | C[C@]12CC[C@H]3C(=CCc4cc(O)ccc43)[C@@H]1CC[C@H]2O [17a-dihydroequilin] | 17.9 | 17.9 | 100.0 | 17.6 | 98.3 | 18.1 | 101.1 | 17.4 | 97.2 | −0.2 | 14.0 | 14.3 | 102.1 | 14.5 | 103.6 | 14.5 | 103.6
3 | C[C@]12CC[C@@H]3c4ccc(O)cc4CC[C@H]3[C@@H]1CC[C@H]2O [17a-estradiol] | 4.6 | 4.7 | 102.2 | 4.7 | 102.2 | 4.8 | 104.3 | 4.5 | 97.8 | −0.2 | 3.8 | 3.9 | 102.6 | 3.9 | 102.6 | 3.8 | 100.0
4 | C[C@]12CCc3c(ccc4cc(O)ccc34)C1CCC2O (stereo partly drawn) [17b-dihydroequilenin] | 0.77 | 0.97 | 126.0 | 0.86 | 111.7 | 0.68 | 88.3 | 0.67 | 87.0 | 0.09 | 0.56 | 0.58 | 103.6 | 0.44 | 78.6 | 0.63 | 112.5
5 | C[C@]12CC[C@H]3C(=CCc4cc(O)ccc43)[C@@H]1CC[C@@H]2O [17b-dihydroequilin] | 2.3 | 2.6 | 108.7 | 2.4 | 104.3 | 2.4 | 104.3 | 2.2 | 95.7 | −0.1 | 1.3 | 1.3 | 100.0 | 1.4 | 107.7 | 1.3 | 100.0
6 | C[C@]12CC[C@@H]3c4ccc(O)cc4CC[C@H]3[C@@H]1CC[C@@H]2O [17b-estradiol] | 1.26 | 0.90 | 71.4 | 0.96 | 76.2 | 0.88 | 69.8 | 1.11 | 88.1 | 0.38 | 0.60 | 0.56 | 93.3 | 0.62 | 103.3 | 0.59 | 98.3
7 | C[C@]12CCc3c(ccc4cc(O)ccc34)[C@@H]1CCC2=O [Equilenin] | 2.2 | 2.3 | 104.5 | 2.6 | 118.2 | 3.0 | 136.4 | 2.5 | 113.6 | −0.8 | 2.6 | 2.8 | 107.7 | 2.8 | 107.7 | 2.8 | 107.7
8 | C[C@]12CC[C@H]3C(=CCc4cc(O)ccc43)[C@@H]1CCC2=O [Equilin] | 27.3 | 27.1 | 99.3 | 26.5 | 97.1 | 26.4 | 96.7 | 26.5 | 97.1 | 0.9 | 22.7 | 23.0 | 101.3 | 23 | 101.3 | 23.3 | 102.6
9 | C[C@]12CCC3=C(CCc4cc(O)ccc43)[C@@H]1CCC2=O [d8,9 dehydroesterone] | 4.15 | 4.13 | 99.5 | 4.02 | 96.9 | 3.91 | 94.2 | 4.07 | 98.1 | 0.24 | 4.72 | 4.68 | 99.2 | 4.53 | 96.0 | 4.91 | 104.0
